Source: US10428083B2, “Heterocyclylmethyl-thienouracile as antagonists of the adenosine-A2B-receptor” (BAYER PHARMA AKTIENGESELLSCHAFT, priority 2015, dated 2019)

Molecular target: human adenosine A2b receptor (Homo sapiens (Human), UniProt P29275)
Experiment: Cellular in vitro reporter gene test for A2b receptor activity (CHO-K1, CRE-luciferase, NECA stimulation)
Assay type: cell-based
Conditions: recombinant CHO-K1 cell line, CRE-luciferase reporter, antagonism of EC50 concentration of NECA; in some cases means of several determinations, rounded to two significant figures; read-out: A2b receptor IC50
Procedure, shortened: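 CHO-K1 cells with CRE-driven luciferase; antagonists co-incubated with NECA at its EC50, determined in a pre-experiment on each test day. Luciferase read by luminescence 3 h after NECA addition.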

human adenosine A2b receptor, sequence (P29275 whole entry): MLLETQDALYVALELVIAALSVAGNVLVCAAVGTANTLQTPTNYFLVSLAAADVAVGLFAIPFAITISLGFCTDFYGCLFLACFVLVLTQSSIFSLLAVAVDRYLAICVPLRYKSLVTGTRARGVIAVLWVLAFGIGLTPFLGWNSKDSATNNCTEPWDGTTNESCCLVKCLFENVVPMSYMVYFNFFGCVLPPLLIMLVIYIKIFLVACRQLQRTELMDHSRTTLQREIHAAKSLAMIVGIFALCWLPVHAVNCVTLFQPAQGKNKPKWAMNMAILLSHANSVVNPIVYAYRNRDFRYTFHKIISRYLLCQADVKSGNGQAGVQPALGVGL

Row | SMILES | IC50 [nM]
1 | CCn1c(=O)c2c(C)c(CN3CCNC3=O)sc2n(CC(C)OC)c1=O (single isomer, unassigned; enantiomer 2) [Example 64, 3-Ethyl-1-(2-methoxypropyl)-5-methyl-6-[(2-oxoimidazolidin-1-yl)methyl]thieno[2,3-d]pyrimidine-2,4(1H,3H)-dione (Enantiomer 2)] | 86
2 | Cc1c(CN2CCNC(=O)C2=O)sc2c1c(=O)n(CC(F)F)c(=O)n2CCC(F)(F)F [Example 125, 3-(2,2-Difluoroethyl)-6-[(2,3-dioxopiperazin-1-yl)methyl]-5-methyl-1-(3,3,3-trifluoropropyl)thieno[2,3-d]pyrimidine-2,4(1H,3H)-dione] | 8.8
3 | Cc1c(CN2CCNC2=S)sc2c1c(=O)n(CC(F)(F)F)c(=O)n2CC1CCCO1 (single isomer, unassigned) [Example 300, 5-Methyl-1-(tetrahydrofuran-2-ylmethyl)-6-[(2-thioxoimidazolidin-1-yl)methyl]-3-(2,2,2-trifluoroethyl)thieno[2,3-d]pyrimidine-2,4(1H,3H)-dione] | 14
4 | Cc1c(CN2CCNC(=O)C2=O)sc2c1c(=O)n(CC(C)(C)C)c(=O)n2CCC(F)(F)F [Example 272, 3-(2,2-Dimethylpropyl)-6-[(2,3-dioxopiperazin-1-yl)methyl]-5-methyl-1-(3,3,3-trifluoropropyl)thieno[2,3-d]pyrimidine-2,4(1H,3H)-dione] | 10
5 | COC(=O)N=C1NCCN1Cc1sc2c(c1C)c(=O)n(CC(C)OC)c(=O)n2CCC(F)(F)F (single isomer, unassigned) [Example 474, Methyl [1-{[3-(2-methoxypropyl)-5-methyl-2,4-dioxo-1-(3,3,3-trifluoropropyl)-1,2,3,4-tetrahydrothieno[2,3-d]pyrimidin-6-yl]methyl}imidazolidin-2-ylidene]carbamate] | 5.6
6 | CCOCCn1c(=O)n(CC(F)F)c(=O)c2c(C)c(CN3CCNC3=S)sc21 [Example 161, 3-(2,2-Difluoroethyl)-1-(2-ethoxyethyl)-5-methyl-6-[(2-thioxoimidazolidin-1-yl)methyl]thieno[2,3-d]pyrimidine-2,4(1H,3H)-dione] | 8.5
7 | CCn1c(=O)c2c(C)c(CN3CCNC3=O)sc2n(CC2CCCO2)c1=O (single isomer, unassigned; enantiomer 1) [Example 69, 3-Ethyl-5-methyl-6-[(2-oxoimidazolidin-1-yl)methyl]-1-(tetrahydrofuran-2-ylmethyl)thieno[2,3-d]pyrimidine-2,4(1H,3H)-dione (Enantiomer 1)] | 9.8
8 | CCn1c(=O)c2c(C)c(CN3CCNC3=S)sc2n(CCOC2CCCC2)c1=O [Example 293, 1-[2-(Cyclopentyloxy)ethyl]-3-ethyl-5-methyl-6-[(2-thioxoimidazolidin-1-yl)methyl]thieno[2,3-d]pyrimidine-2,4(1H,3H)-dione] | 120
9 | COCCn1c(=O)n(CC(F)(F)F)c(=O)c2c(C)c(Cn3nc[nH]c3=O)sc21 [Example 433, 1-(2-Methoxyethyl)-5-methyl-6-[(5-oxo-4,5-dihydro-1H-1,2,4-triazol-1-yl)methyl]-3-(2,2,2-trifluoroethyl)thieno[2,3-d]pyrimidine-2,4(1H,3H)-dione] | 58
10 | Cc1c(CN2CCNC2=NC#N)sc2c1c(=O)n(C(C)C)c(=O)n2CC1CCO1 (single isomer, unassigned) [Example 266, [1-{[3-Isopropyl-5-methyl-1-(oxetan-2-ylmethyl)-2,4-dioxo-1,2,3,4-tetrahydrothieno[2,3-d]pyrimidin-6-yl]methyl}imidazolidin-2-ylidene]cyanamide] | 75
11 | CCn1c(=O)c2c(C)c(Cn3c(C)c[nH]c3=O)sc2n(CCOC)c1=O [Example 252] | 4.1
12 | Cc1c(CN2CCNC2=NC#N)sc2c1c(=O)n(C(C)C)c(=O)n2CC1CCCO1 (single isomer, unassigned) [Example 357, [1-{[3-Isopropyl-5-methyl-2,4-dioxo-1-(tetrahydrofuran-2-ylmethyl)-1,2,3,4-tetrahydrothieno[2,3-d]pyrimidin-6-yl]methyl}imidazolidin-2-ylidene]cyanamide] | 32
13 | CCn1c(=O)c2c(C)c(CN3CCNC3=O)sc2n(CC2CCOC2)c1=O (racemic) [Example 73, 3-Ethyl-5-methyl-6-[(2-oxoimidazolidin-1-yl)methyl]-1-(tetrahydrofuran-3-ylmethyl)thieno[2,3-d]pyrimidine-2,4(1H,3H)-dione (racemate)] | 79

The remaining lines, values ahead:

Row | IC50 [nM] | SMILES
14 | 1.4 | CCn1c(=O)c2c(C)c(CN3CCNC3=O)sc2n(CCC(F)(F)F)c1=O [Example 48, 3-Ethyl-5-methyl-6-[(2-oxoimidazolidin-1-yl)methyl]-1-(3,3,3-trifluoropropyl)thieno[2,3-d]pyrimidine-2,4(1H,3H)-dione]
15 | 9.2 | CCn1c(=O)c2c(C)c(CN3C(=O)CNC3=O)sc2n(CCOC(F)(F)F)c1=O [Example 106, 6-[(2,5-Dioxoimidazolidin-1-yl)methyl]-3-ethyl-5-methyl-1-[2-(trifluoromethoxy)ethyl]thieno[2,3-d]pyrimidine-2,4(1H,3H)-dione]
16 | 500 | C=CCn1cnn(Cc2sc3c(c2C)c(=O)n(CC)c(=O)n3CCOC)c1=O [Example 112, 6-[(4-Allyl-5-oxo-4,5-dihydro-1H-1,2,4-triazol-1-yl)methyl]-3-ethyl-1-(2-methoxyethyl)-5-methylthieno[2,3-d]pyrimidine-2,4(1H,3H)-dione]
17 | 140 | COCCn1c(=O)c2c(C)c(Cn3[nH]ccc3=O)sc2n(CCOC)c1=O [Example 288, 1,3-Bis(2-methoxyethyl)-5-methyl-6-[(5-oxo-2,5-dihydro-1H-pyrazol-1-yl)methyl]thieno[2,3-d]pyrimidine-2,4(1H,3H)-dione]
18 | 3.1 | CCn1c(=O)c2c(C)c(CN3CCNC3=NC(=O)OC)sc2n(CCOC)c1=O (single isomer, unassigned) [Example 118, Methyl [1-{[3-ethyl-1-(2-methoxyethyl)-5-methyl-2,4-dioxo-1,2,3,4-tetrahydrothieno[2,3-d]pyrimidin-6-yl]methyl}imidazolidin-2-ylidene]carbamate]
19 | 7.1 | COC(=O)N=C1NCCN1Cc1sc2c(c1C)c(=O)n(C(C)C)c(=O)n2CC1CCO1 (single isomer, unassigned) [Example 457, Methyl [1-{[3-isopropyl-5-methyl-1-(oxetan-2-ylmethyl)-2,4-dioxo-1,2,3,4-tetrahydrothieno[2,3-d]pyrimidin-6-yl]methyl}imidazolidin-2-ylidene]carbamate]
20 | 0.88 | CCn1c(=O)c2c(C)c(CN3CCNC3=O)sc2n(CCOC(F)(F)F)c1=O [Example 57, 3-Ethyl-5-methyl-6-[(2-oxoimidazolidin-1-yl)methyl]-1-[2-(trifluoromethoxy)ethyl]thieno[2,3-d]pyrimidine-2,4(1H,3H)-dione]
21 | 4.1 | CCn1c(=O)c2c(C)c(CN3CCNC3=O)sc2n(CC2CC2(F)F)c1=O (racemic) [Example 54, 1-[(2,2-Difluorocyclopropyl)methyl]-3-ethyl-5-methyl-6-[(2-oxoimidazolidin-1-yl)methyl]thieno[2,3-d]pyrimidine-2,4(1H,3H)-dione (racemate)]
22 | 6.6 | COC(=O)N=C1NCCN1Cc1sc2c(c1C)c(=O)n(CC(F)(F)F)c(=O)n2CC1CCO1 (single isomer, unassigned) [Example 466, Methyl [1-{[5-methyl-1-(oxetan-2-ylmethyl)-2,4-dioxo-3-(2,2,2-trifluoroethyl)-1,2,3,4-tetrahydrothieno[2,3-d]pyrimidin-6-yl]methyl}imidazolidin-2-ylidene]carbamate]
23 | 9.2 | COC(=O)N=C1NCCN1Cc1sc2c(c1C)c(=O)n(CC(C)(C)C)c(=O)n2CCC(F)(F)F [Example 461, Methyl [1-{[3-(2,2-dimethylpropyl)-5-methyl-2,4-dioxo-1-(3,3,3-trifluoropropyl)-1,2,3,4-tetrahydrothieno[2,3-d]pyrimidin-6-yl]methyl}imidazolidin-2-ylidene]carbamate]
24 | 5.2 | CCn1c(=O)c2c(C)c(CN3CCNC3=NC#N)sc2n(CCOC)c1=O [Example 117, [1-{[3-Ethyl-1-(2-methoxyethyl)-5-methyl-2,4-dioxo-1,2,3,4-tetrahydrothieno[2,3-d]pyrimidin-6-yl]methyl}imidazolidin-2-ylidene]cyanamide]
25 | 18 | Cc1c(CN2CCNC2=O)sc2c1c(=O)n(CC(C)C)c(=O)n2CC1CCCO1 (single isomer, unassigned) [Example 197, 3-Isobutyl-5-methyl-6-[(2-oxoimidazolidin-1-yl)methyl]-1-(tetrahydrofuran-2-ylmethyl)thieno[2,3-d]pyrimidine-2,4(1H,3H)-dione]
26 | 45 | Cc1c(CN2CCNC(=O)C2=O)sc2c1c(=O)n(CC(C)(C)C)c(=O)n2CC1CCCO1 (racemic) [Example 483, 3-(2,2-Dimethylpropyl)-6-[(2,3-dioxopiperazin-1-yl)methyl]-5-methyl-1-(tetrahydrofuran-2-ylmethyl)thieno[2,3-d]pyrimidine-2,4(1H,3H)-dione]
27 | 12 | CCn1c(=O)c2c(C(F)F)c(CN3CCNC3=S)sc2n(CCOC)c1=O [Example 45, 5-(Difluoromethyl)-3-ethyl-1-(2-methoxyethyl)-6-[(2-thioxoimidazolidin-1-yl)methyl]thieno[2,3-d]pyrimidine-2,4(1H,3H)-dione]
28 | 8.1 | CCn1c(=O)c2c(C)c(CN3CCNC3=O)sc2n(CC2COC2)c1=O [Example 72, 3-Ethyl-5-methyl-1-(oxetan-3-ylmethyl)-6-[(2-oxoimidazolidin-1-yl)methyl]thieno[2,3-d]pyrimidine-2,4(1H,3H)-dione]
29 | 20 | COC(C)(C)Cn1c(=O)c2c(C)c(CN3CCNC(=O)C3=O)sc2n(CCC(F)(F)F)c1=O [Example 279, 6-[(2,3-Dioxopiperazin-1-yl)methyl]-3-(2-methoxy-2-methylpropyl)-5-methyl-1-(3,3,3-trifluoropropyl)thieno[2,3-d]pyrimidine-2,4(1H,3H)-dione]
